Paper PMC5717258, “Bioaccumulation of pharmaceuticals and personal care product chemicals in fish exposed to wastewater effluent in an urban wetland” (Scientific Reports, 2017)

Assays:
[1] = human, ref Schulz et al.[56], cited from earlier work; for Therapeutic "normal" blood-plasma/serum concentration: converted from µg/mL
in vivo = conditions: for concentration at 21 days: goldfish (Carassius auratus)
Summary of the method: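 Pooled caged-goldfish plasma, wild-fish plasma (2.3–2.5 g) and water samples were spiked with isotope-labelled surrogates, then extracted (acetonitrile sonication for plasma; pH-adjusted water) and cleaned up by HLB SPE. PPCPs were quantified by LC/ESI-MS/MS using isotope dilution. Non-detects were set to ½ DL when the analyte was detected in ≥2 samples.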

[2] = set-up: method as in Moreno-González et al. 17; conditions: mean ± SD; ref Moreno-González et al. 17; cited from earlier work
[3] = Plasma bioaccumulation factor (BAFP), carp; format: in vivo, carp (Cyprinus carpio)
Procedure: Bioaccumulation factor (BAFP) was calculated as concentration in fish plasma (ng/g × 1000) divided by concentration in water (ng/L). Two widely used modeling approaches for predicting organic contaminant bioaccumulation were assessed: the BCF-BAF model for whole body BAFs[53] and the fish-plasma concentration calculation of Huggett et al.[35] modified by Berninger et al.[54]. The latter involves estimating an octanol-water partition coefficient (Kow) adjusted for fraction ionized (log D), using the pKa value to adjust log Kow[54] taking into account the pH of CPM waters. Further information on the calculation of log D, blood-water partitioning (PBW), and plasma concentrations (FPC) is given in the SI.

[4] = Plasma bioaccumulation factor (BAFP), goldfish; format: in vivo, goldfish (Carassius auratus)
Summary of the method: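 BAFP in goldfish was calculated as plasma concentration (ng/g × 1000) divided by water concentration (ng/L).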

[5] = set-up: method as in US EPA Chemistry Dashboard; conditions: ref US EPA Chemistry Dashboard; cited from earlier work
[6] = for Cootes carp plasma, range of concentrations / wild goldfish plasma, range of concentrations: Cootes Paradise Marsh; for plasma concentration, CPM-C 01: Cootes carp 01, 2011, male; for plasma concentration, CPM-C 2: Cootes carp 2, Sep 27, 2011, male; for plasma concentration, CPM-C 10: Cootes carp 10, Sep 28, 2011, female; for plasma concentration, CPM-C 13: Cootes carp 13, Sep 28, 2011, female; for plasma concentration, CPM-C 20: Cootes carp 20, 2011, male; for plasma concentration, CPM-C 36: Cootes carp 36, Oct 3, 2011, female; for plasma concentration, carp, this study (mean) / plasma concentration, goldfish, this study (mean): Table S8; for plasma concentration, CPM wild-01: wild goldfish sample 01, 2012, wet weight; for plasma concentration, CPM wild-02: wild goldfish sample 02, 2012, wet weight; for plasma concentration, CPM wild-03: wild goldfish sample 03, 2012, wet weight
[7] = cited from earlier work
[8] = ref Meador et al. 18; cited from earlier work
[9] = set-up: method as in Brown et al. 11; conditions: ref Brown et al. 11; cited from earlier work
[10] = Jordan Harbour brown bullhead, wet weight
Procedure: Plasma from 9 individual male fish (500 µL/individual) was pooled to yield 3 samples for PPCP analysis. […] Plasma from 6 individual carp (2.3–3.5 g) from each location was selected for PPCP analysis. […] Plasma samples were frozen (−80 °C) until analysis.
A total of 20 fish plasma samples from the pooled caged fish (7) and the wild fish (13) along with 12 water samples were selected for analysis. […] A full list of analytes is provided in Supplementary Information. Mass labelled^13C-, or deuterated surrogate internal standards were used for quantification of all analytes via the isotope dilution/surrogate standard quantitation method. Prior to extraction and/or clean-up procedures, aqueous samples were adjusted to pH 2.0, spiked with extraction surrogate standards, then adjusted to pH 4 using tetrasodium ethylenediamine-tetraacetate dihydrate. Plasma samples (2.3–2.5 g) were spiked with extraction surrogate standards, sonicated with 20 mL acetonitrile, then diluted with ultra-pure water to 200 mL. The extracts were cleaned up by solid phase extraction using Oasis HLB cartridges (Waters Ltd. Mississauga ON), filtered, and analyzed by liquid chromatography-electrospray ionization-tandem mass spectrometry (LC/ESI-MS/MS) in positive or negative ionization mode. The analysis of the complete list of analytes (SI Table S1) required a total of five instrumental runs.

[11] = in vivo, plasma concentration, JH caged, Jordan Harbour reference site, 07-2014, pooled plasma, wet weight
[12] = conc in fish plasma/conc in water
[13] = range based on range of plasma concentrations

Compound: COc1ccc(C(CN(C)C)C2(O)CCCCC2)cc1 (stereo not shown) [Venlafaxine]
- Therapeutic "normal" blood-plasma/serum concentration [1]: 100 to 400 ng/mL
- toxic dose (toxic blood-plasma/serum concentration) [1]: 1000 to 1500 ng/mL
- concentration at 21 days (in vivo; in vivo, caged goldfish plasma, range of concentrations, Cootes Paradise Marsh, range): 0.04 to 0.26 ng/g
- concentration at 21 days (in vivo; in vivo, plasma concentration, CPM1 caged, CPM1, 07-2014, pooled plasma, wet weight): 0.165 ng/g
- concentration at 21 days (in vivo; in vivo, plasma concentration, CPM2 caged, CPM2, 07-2014, pooled plasma, wet weight): 0.039 ng/g
- concentration at 21 days (in vivo; in vivo, plasma concentration, CPM3 caged, CPM3, 07-2014, pooled plasma, wet weight): 0.041 ng/g
- concentration at 21 days (in vivo; [11]): < 0.08 ng/g
- liver & muscle concentration, mullet [2]: 0.68 ± 1.3 ng/g wet weight or ng/mL for plasma
- BAFP at JH, carp, average ([3]; Jordan Harbour): 64 L/kg
- BAFP at CPM3, carp, average [3, 12]: 12 L/kg
- BAFP at CPM3, carp, range [3, 13]: 5 to 32 L/kg
- BAFP, CPM1 goldfish caged ([4]; CPM1): 3 L/kg
- BAFP, CPM3 goldfish caged ([4]; CPM3): 52 L/kg
- BAFP at CPM3, wild goldfish, average [4, 12]: 14 L/kg
- BAFP at CPM3, wild goldfish, range [4, 13]: 5 to 31 L/kg
- log Kow [5]: 3.28
- Cootes carp plasma, range of concentrations [6]: 0.04 to 0.27 ng/g
- wild goldfish plasma, range of concentrations [6]: 0.04 to 0.17 ng/g
- plasma concentration, CPM-C 01 ([6]; wet weight): 0.042 ng/g
- plasma concentration, CPM-C 2 ([6]; wet weight): 0.086 ng/g
- plasma concentration, CPM-C 10 ([6]; wet weight): 0.061 ng/g
- plasma concentration, CPM-C 13 ([6]; wet weight): 0.063 ng/g
- plasma concentration, CPM-C 20 ([6]; wet weight): 0.268 ng/g
- plasma concentration, CPM-C 36 ([6]; wet weight): 0.057 ng/g
- plasma concentration, JH-C 54 ([6]; Jordan Harbour carp 54, Nov 7, 2011, male, wet weight): 0.042 ng/g
- plasma concentration, JH-C 73 ([6]; Jordan Harbour carp 73, Nov 7, 2011, female, wet weight): 0.041 ng/g
- plasma concentration, JH-C 74 ([6]; Jordan Harbour carp 74, Nov 7, 2011, male, wet weight): 0.043 ng/g
- plasma concentration, JH-C 75 ([6]; Jordan Harbour carp 75, Nov 7, 2011, female, wet weight): 0.060 ng/g
- plasma concentration, JH-C 82 ([6]; Jordan Harbour carp 82, Nov 7, 2011, female, wet weight): 0.040 ng/g
- plasma concentration, carp, this study (mean) [6]: 0.10 ng/g wet weight or ng/mL for plasma
- plasma concentration, goldfish, this study (mean) [6]: 0.11 ng/g wet weight or ng/mL for plasma
- plasma concentration, CPM wild-01 [6]: 0.039 ng/g
- plasma concentration, CPM wild-02 [6]: 0.258 ng/g
- plasma concentration, CPM wild-03 [6]: 0.042 ng/g

Compound: Cc1ccc(C)c(OCCCC(C)(C)C(=O)O)c1 [Gemfibrozil]
- Therapeutic "normal" blood-plasma/serum concentration [1]: ~25000 ng/mL
- plasma concentration, CPM1 caged (in vivo; CPM1, 07-2014, pooled plasma, wet weight): 0.15 ng/g
- plasma concentration, CPM3 caged (in vivo; CPM3, 07-2014, pooled plasma, wet weight): 0.15 ng/g
- concentration at 21 days (in vivo; [11]): < 0.3 ng/g
- concentration at 21 days (in vivo; plasma, caged goldfish plasma, range of concentrations, Cootes Paradise Marsh, range): 0.15 to 0.86 ng/g
- concentration at 21 days (in vivo; plasma, plasma concentration, CPM1 caged, CPM1, 07-2014, pooled plasma, wet weight): 0.147 ng/g
- concentration at 21 days (in vivo; plasma, plasma concentration, CPM2 caged, CPM2, 07-2014, pooled plasma, wet weight): 0.146 ng/g
- concentration at 21 days (in vivo; plasma, plasma concentration, CPM3 caged, CPM3, 07-2014, pooled plasma, wet weight): 0.154 ng/g
- Salmon (whole body) concentration ([7]; Table S7, ref Meador et al. (2016)): 1.3 ng/g
- whole fish concentration, salmon ([7]; ref Meador et al. 18): 1.3 ng/g wet weight or ng/mL for plasma
- whole fish concentration, sculpin [8]: < mdl
- BAFP, CPM2 goldfish caged ([4]; CPM2, water sample of August 2012): 27 L/kg
- plasma concentration, rainbow trout [9]: <8-210 ng/g wet weight or ng/mL for plasma
- log Kow [5]: 4.14
- plasma concentration, JH-BB [10]: < 0.57 ng/g
- Cootes carp plasma, range of concentrations [6]: 0.16 to 0.83 ng/g
- wild goldfish plasma, range of concentrations [6]: 0.15–0.15 ng/g
- plasma concentration, CPM-C 01 ([6]; wet weight): 0.158 ng/g
- plasma concentration, CPM-C 2 ([6]; wet weight): 0.724 ng/g
- plasma concentration, CPM-C 10 ([6]; wet weight): 0.227 ng/g
- plasma concentration, CPM-C 13 ([6]; wet weight): 0.234 ng/g
- plasma concentration, CPM-C 20 ([6]; wet weight): 0.162 ng/g
- plasma concentration, CPM-C 36 ([6]; wet weight): 0.827 ng/g
- Carp plasma concentration, this study (range) ([6]; Table S7): 0.16 to 0.83 ng/g
- Goldfish plasma concentration, this study (range) ([6]; Table S7): 0.15 to 0.86 ng/g
- plasma concentration, carp, this study (mean) [6]: 0.39 ng/g wet weight or ng/mL for plasma
- plasma concentration, goldfish, this study (mean) [6]: 0.46 ng/g wet weight or ng/mL for plasma
- plasma concentration, CPM wild-01 [6]: 0.147 ng/g
- plasma concentration, CPM wild-02 [6]: 0.387 ng/g
- plasma concentration, CPM wild-03 [6]: 0.86 ng/g
